Source: patent US10308682B2, “Inhibition of tumor growth with aggregates of small molecules” (BRANDEIS UNIVERSITY, priority 2013, dated 2019)

Experiments:
T98G cells = experiment: Tubulin staining (tubulin tracker), T98G cells; type: cell-based; details: 400 μM, 24 h
tau = experiment: Hydrogel based protein pull-down assay, tau; type: binding; details: protein mass-spectrometry
Protocol: One reason is that PC12 cells have slower metabolism and growth (e.g., doubling every 72 h) than that of cancer cells. […] Another reason is that, PC12 cells, as a neuronal cell, have abundant amount of microtubule-stabilizing proteins (e.g., tau and MAP2) to promote tubulin polymerization and stabilize microtubules. […] Therefore, the existence of microtubule-stabilizing proteins in neurons can counter the effect of the molecular aggregates of 1, which is consistent with that PC12 cells, incubated with 1 at 400 μM (FIG. 5p), still display intact microtubule network. These two effects together, protect the PC12 cells from cytotoxicity induced by molecular aggregates of 1 (FIG. 7).
4×10^7 of HeLa cells were scrapped from petri dish and washed with PBS buffer for 3 times then centrifuged at 300 g for 5 minutes. The collected cell pellet was mixed with phosphate buffer (100 mM) then snap freeze and thaw for 3 cycles to lyse the cells. The cell lysate was clarified by centrifugation at 12,000 g for 20 min at 4° C. to remove the whole cells, nuclei and large mitochondria. 50 μL of the supernatant lysate was gently mixed with 30 μL hydrogel of 1 (10 mM in PBS buffer, pH 7.6) on rotator at RT for 30 min. The hydrogel was collected by centrifugation (12,000 g, 5 min, 4° C.) and the supernatant was collected and placed on ice before analysis. […]

HeLa cells = experiment: Intracellular concentration of 1 in HeLa cells by LC-MS; type: cell-based; details: incubated with 300 μM and 400 μM for 24 h
Protocol: FIG. 3 depicts the response of cancer cells toward molecular aggregates of 1. (a) Intracellular concentration of 1 in HeLa cells treated with 1 for 12 h at different temperatures measure by LC-MS (left bar=37° C.; right bar=4° C.). (b) Confocal images of FITC annexin V and PI stained HeLa cells without incubation with 1 (live cells), HeLa cells treated with 400 μM of 1 for 36 h, and necrotic HeLa cells (induced by DMSO). Scale bar=20 μm. (c) Fluorescence emission of 7-AAD and 1 in cell lysate (15,000 cell/mL) at λex=488 nm. (d) Cell cycle analysis, by flow cytometry, of HeLa cells treated with 0, 300 or 400 μM of 1 for 24 h. Depletion of G2/M phase occurs in cells treated with 400 μM of 1. […] The gaps were created on the HeLa cells of 100% confluence in 24 well plates, and measured after incubation for 18 h.
The cytotoxicity of the molecular aggregates of 1 toward the cancer cells in cell assays and on animal model warrants further examination on the mechanism of the cell death. […] We measured the intracellular concentrations of 1 in the lysate of the HeLa cells incubated with 300 μM and 400 μM of 1 for 24 h (FIG. 3a) at 37° C. or 4° C. Based on the amount of 1, measured by liquid chromatography-mass spectroscopy (LC-MS) and the estimated total cell volume, the concentration of 1 inside the cells is about 150% of the concentration of 1 used for the incubation at 37° C. […]

MCF-7 = experiment: Cell viability assay (MTT), MCF-7; type: cell-based
Protocol: (§1) Cells in exponential growth phase were seeded in a 96 well plate at a concentration of 50,000 cell/well. The cells were allowed to attach to the wells for 24 h at 37° C., 5% CO2, then the culture medium was removed and 100 μL new culture medium containing 1 at gradient concentrations was placed into each well. After culturing at 37° C., 5% CO2 for desired time, each well was added by 10 μL of 5 mg/mL MTT 43-(4,5-Dimethylthiazol-2-yl)-2,5-diphenyltetrazolium bromide), and the plated cells were incubate at dark for 4 h. 100 μL 10% SDS with 0.01 M HCl was added to each well to stop the reduction reaction and to dissolve the purple. After incubation of the cells at 37° C. for overnight, the viability is measured. Data represent the mean±standard deviation of three independent experiments.
(§2) The estimation of the threshold concentration of aggregation (320-340 μM) for 1 allows us to examine the cytotoxicity of 1 in monomer and molecular aggregate forms. We first tested the cytotoxicity of 1 towards HeLa cells, the most widely studied cancer cell line, below and above the threshold concentration.

U87MG = experiment: Cell viability assay (MTT), U87MG; type: cell-based
Protocol: as §1, §2

In the case of `O=C(Cc1ccc2ccccc2c1)N[C@@H](Cc1ccccc1)C(=O)N[C@@H](Cc1ccccc1)C(=O)O` [Compound 1], the microtubule morphology (T98G cells) is reported as “disrupted microtubule network”, the “interaction of aggregates of 1 with tau” value (tau) is reported as “little or no interaction” and the “concentration of 1 inside the cells” value (HeLa cells; 4° C.) is reported as “about 30 % of the incubating concentration”. For the same molecule, the “concentration of 1 inside the cells” value (HeLa cells; 37° C.) was “about 150 % of the concentration of 1 used for the incubation”, the “cytotoxicity towards MCF-7” value (MCF-7) was “decreases of cell viabilities only observed at 400 and 500 μM” and the “cytotoxicity towards U87MG” value (U87MG) was “decreases of cell viabilities only observed at 400 and 500 μM”.
